Where two headings read alike, the source gives them in different places.
Experiments:
[1] = biological target: recombinant human SOS1 polypeptide (amino acids 560-1049) (Homo sapiens (Human), UniProt Q07889); assay: biochemical; assay type: binding
pERK in MKN1 cells = assay: cells; assay type: cell-based; conditions: Homo sapiens, MKN-1, pERK inhibition, In-Cell Western, MKN1 or H358 cells (Table 24 does not say which), 0.5-1 hour incubation
[2] = HTRF displacement, Cy5 labelled tracer, Morrison equation for competitive binding, read-out: Ki, Inhibition of Labeled Tracer Binding to SOS1

recombinant human SOS1 polypeptide (amino acids 560-1049), sequence (Q07889 560-1049): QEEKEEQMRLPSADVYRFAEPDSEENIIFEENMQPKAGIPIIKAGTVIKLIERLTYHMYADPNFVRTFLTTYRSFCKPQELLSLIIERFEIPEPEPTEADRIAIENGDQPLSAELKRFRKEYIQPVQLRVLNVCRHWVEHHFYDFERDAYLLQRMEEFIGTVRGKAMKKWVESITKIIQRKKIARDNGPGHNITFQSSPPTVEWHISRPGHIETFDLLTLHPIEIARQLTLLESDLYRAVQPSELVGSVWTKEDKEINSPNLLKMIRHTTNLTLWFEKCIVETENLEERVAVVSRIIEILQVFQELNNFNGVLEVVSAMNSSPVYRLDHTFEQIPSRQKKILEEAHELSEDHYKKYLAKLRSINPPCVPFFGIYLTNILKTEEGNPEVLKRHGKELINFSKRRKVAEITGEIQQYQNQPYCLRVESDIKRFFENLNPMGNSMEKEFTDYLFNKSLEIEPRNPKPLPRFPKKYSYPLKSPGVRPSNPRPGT

Compound | Ki [1, 2] [nM] | IC50 (pERK in MKN1 cells; read-out: IC50) [nM] | Ki ([1]; read-out: Ki, Inhibition of Labeled Tracer Binding to SOS1) [nM] | IC50 (pERK in MKN1 cells) [nM] | Ki [1] [nM]
Cc1nnc(N[C@H](C)c2ccc(F)cc2F)c2cc(N3CC(C)(N(C)C)C3)ncc12 [Example 12-49] | 39.7 | 161 | – | – | –
Cc1c(C#N)cccc1[C@@H](C)Nc1nnc(C)c2cnc(N3CC4(CCN(C)C4)C3)cc12 [Example 12-51] | 0.79 | 48 | – | – | –
CCN1CCN(c2cc3c(N[C@H](C)c4cccc(C#N)c4C)nnc(C)c3cn2)CC1 [Example 12-52] | 1.06 | 60 | – | – | –
Cc1c(C#N)cccc1[C@@H](C)Nc1nnc(C)c2cnc(N3CCC(C)(O)CC3)cc12 [Example 12-53] | 0.83 | 47 | – | – | –
Cc1c(C#N)cccc1[C@@H](C)Nc1nnc(C)c2cnc(N3CC(N(C)C)C3)cc12 [Example 12-54] | 5.37 | 45 | – | – | –
COC1(C)CN(c2cc3c(N[C@H](C)c4cccc(C#N)c4C)nnc(C)c3cn2)C1 [Example 12-55] | 3.1 | 59 | – | – | –
Cc1nnc(N[C@H](C)c2cccc(F)c2F)c2cc(N3CC(C)(O)C3)ncc12 [Example 12-56] | 31.1 | 301 | – | – | –
Cc1cc(F)ccc1[C@@H](C)Nc1nnc(C)c2cnc(N3CC(C)(O)C3)cc12 [Example 12-57] | 92.2 | 1860 | – | – | –
Cc1nnc(N[C@H](C)c2ccc(F)cc2F)c2cc(N3CC4CC(C3)O4)ncc12 [Example 12-58] | 14.6 | 38 | – | – | –
Cc1c(C(F)F)cccc1[C@@H](C)Nc1nnc(C)c2cnc(N3CCN(c4cnn(C)c4)CC3)cc12 [Example 12-59] | 0.47 | 19 | – | – | –
Cc1nnc(N[C@H](C)c2cccc(C(F)(F)F)c2F)c2cc(N3C[C@H]4CC[C@@H]3CN4C)ncc12 [Example 12-60] | 0.25 | 24 | – | – | –
Cc1nnc(N[C@H](C)c2cccc(C(F)(F)F)c2F)c2cc(N3CC(C)(O)C3)ncc12 [Example 12-61] | 1.68 | 21 | – | – | –
Cc1nnc(N[C@H](C)c2cccc(C(F)(F)F)c2F)c2cc(N3CCC(N(C)C)CC3)ncc12 [Example 12-64] | 0.51 | 29 | – | – | –
Cc1nnc(N[C@H](C)c2cccc(C(F)(F)F)c2F)c2cc(N3CCNCC3)ncc12 [Example 12-65] | 0.72 | 16 | – | – | –
Cc1nnc(N[C@H](C)c2cccc(C(F)(F)F)c2F)c2cc(N3CC(N(C)C)C3)ncc12 [Example 12-66] | 2.1 | 77 | – | – | –
COCCN1C[C@H]2CC[C@@H]1CN2c1cc2c(N[C@H](C)c3cccc(C#N)c3C)nnc(C)c2cn1 [Example 12-70] | 0.68 | 13 | – | – | –
Cc1c(C#N)cccc1[C@@H](C)Nc1nnc(C)c2cnc(N3CC4(COCCN4C)C3)cc12 [Example 12-72] | 4.39 | 19 | – | – | –
Cc1nnc(N[C@H](C)c2cccc(F)c2F)c2cc(N3CCN4CCOC[C@@H]4C3)ncc12 [Example 12-75] | 14 | 87 | – | – | –
Cc1c(C#N)cccc1[C@@H](C)Nc1nnc(C)c2cnc(N3C[C@H]4CC[C@@H]3CN4CC(F)(F)F)cc12 [Example 12-76] | 1.06 | 56 | – | – | –
Cc1c(C#N)cccc1[C@@H](C)Nc1nnc(C)c2cnc(N3CC4(CCN(CC(F)(F)F)C4)C3)cc12 [Example 12-78] | 2.66 | 94 | – | – | –
Cc1cc(F)ccc1[C@@H](C)Nc1nnc(C)c2cnc(N3CCN4CCOC[C@@H]4C3)cc12 [Example 12-79] | 36.3 | 173 | – | – | –
Cc1nnc(N[C@H](C)c2cccc(F)c2Cl)c2cc(N3CC(C)(O)C3)ncc12 [Example 12-80] | 37.4 | 295 | – | – | –
Cc1c(F)cccc1[C@@H](C)Nc1nnc(C)c2cnc(N3CC(C)(N(C)C)C3)cc12 [Example 12-82] | 20.9 | 330 | – | – | –
Cc1nnc(N[C@H](C)c2cccc(F)c2F)c2cc(N3CC(C)(N(C)C)C3)ncc12 [Example 12-83] | 50.6 | 749 | – | – | –

Compound | Ki [1, 2] [nM] | IC50 (pERK in MKN1 cells; read-out: IC50) [nM] | Ki ([1]; read-out: Ki, Inhibition of Labeled Tracer Binding to SOS1) [nM] | IC50 (pERK in MKN1 cells) [nM] | Ki [1] [nM]
Cc1cc(F)ccc1[C@@H](C)Nc1nnc(C)c2cnc(N3CC4CC(C3)O4)cc12 [Example 12-84] | 43.4 | 280 | – | – | –
Cc1nnc(N[C@H](C)c2cccc(F)c2Cl)c2cc(N3CC(C)(N(C)C)C3)ncc12 [Example 12-85] | 27.6 | 602 | – | – | –
Cc1nnc(N[C@H](C)c2cccc(C(F)F)c2F)c2cc(N3CC(C)(O)C3)ncc12 [Example 12-101] | 1.45 | 22 | – | – | –
Cc1c(C#N)cc(F)cc1[C@@H](C)Nc1nnc(C)c2cnc(N3CCN4CCOC[C@@H]4C3)cc12 [Example 12-103] | 10.9 | 107 | – | – | –
Cc1c(C#N)cc(F)cc1[C@@H](C)Nc1nnc(C)c2cnc(N3CCC(C)(N(C)C)CC3)cc12 [Example 12-104] | 6.1 | 92 | – | – | –
Cc1c(C#N)cc(F)cc1[C@@H](C)Nc1nnc(C)c2cnc(N3C[C@H]4C[C@@H]3CO4)cc12 [Example 12-105] | 10.9 | 97 | – | – | –
Cc1c(C#N)cc(F)cc1[C@@H](C)Nc1nnc(C)c2cnc(N3CC4CC(C3)O4)cc12 [Example 12-106] | 11.1 | 114 | – | – | –
Cc1nnc(N[C@H](C)c2cccc(C(F)F)c2F)c2cc(N3CC(C)(N(C)C)C3)ncc12 [Example 12-115] | 1.66 | 19 | – | – | –
Cc1cc(F)ccc1[C@@H](C)Nc1nnc(C)c2cnc(N3CC(C)(N(C)C)C3)cc12 [Example 12-124] | 64.5 | 856 | – | – | –
Cc1cccc([C@@H](C)Nc2nnc(C)c3cnc(N4CCN5CCOC[C@@H]5C4)cc23)c1F [Example 12-131] | 3.6 | 28 | – | – | –
Cc1cccc([C@@H](C)Nc2nnc(C)c3cnc(N4CC(C)(O)C4)cc23)c1F [Example 12-132] | 11 | 76 | – | – | –
Cc1cccc([C@@H](C)Nc2nnc(C)c3cnc(N4CC(C)(N(C)C)C4)cc23)c1F [Example 12-133] | 11.5 | 97 | – | – | –
Cc1c([C@@H](C)Nc2nnc(C)c3ccc(O[C@H]4CCOC4)cc23)cccc1C(F)(F)F [Example 13-1, 4-methyl-N—((R)-1-(2-methyl-3-(trifluoromethyl)phenyl)ethyl)-7-(((S)-tetrahydrofuran-3-yl)oxy)phthalazin-1-amine] | 2.77 | 149 | – | – | –
Cc1c([C@@H](C)Nc2nnc(C)c3ccc(OC4COC4)cc23)cccc1C(F)(F)F [Example 13-2, (R)-4-methyl-N-(1-(2-methyl-3-(trifluoromethyl)phenyl)ethyl)-7-(oxetan-3-yloxy)phthalazin-1-amine] | 191 | 2070 | – | – | –
Cc1c(C#N)cccc1[C@@H](C)Nc1nnc(C)c2ccc(O[C@H]3CCOC3)cc12 [Example 13-3] | 12.2 | 195 | – | – | –
Cc1c([C@@H](C)Nc2nnc(CN(C)C)c3ccc(N4CCOCC4)cc23)cccc1C(F)(F)F [Example 14-1, (R)-4-((dimethylamino)methyl)-N-(1-(2-methyl-3-(trifluoromethyl)phenyl)ethyl)-7-morpholinophthalazin-1-amine] | – | – | 8.97 | 68 | –
Cc1c(C#N)cccc1[C@@H](C)Nc1nnc(CN(C)C)c2cnc(N3C[C@H]4C[C@@H]3CO4)cc12 [Example 14-4, 3-((R)-1-((7-((1R,4R)-2-oxa-5-azabicyclo[2.2.1]heptan-5-yl)-4-((dimethylamino)methyl)pyrido[3,4-d]pyridazin-1-yl)amino)ethyl)-2-methylbenzonitrile] | 8.55 | 89 | – | – | –
CNCc1nnc(N[C@H](C)c2cccc(C(F)(F)F)c2C)c2cc(N3C[C@H]4C[C@@H]3CO4)ncc12 [Example 14-5, 7-((1R,4R)-2-oxa-5-azabicyclo[2.2.1]heptan-5-yl)-N-((R)-1-(2-methyl-3-(trifluoromethyl)phenyl)ethyl)-4-((methylamino)methyl)pyrido[3,4-d]pyridazin-1-amine] | 2.54 | 70 | – | – | –
Cc1c([C@@H](C)Nc2nnc(CN(C)C)c3cnc(N4C[C@H]5C[C@@H]4CO5)cc23)cccc1C(F)(F)F [Example 14-6, 7-((1R,4R)-2-oxa-5-azabicyclo[2.2.1]heptan-5-yl)-4-((dimethylamino)methyl)-N-((R)-1-(2-methyl-3-(trifluoromethyl)phenyl)ethyl)pyrido[3,4-d]pyridazin-1-amine] | 2.56 | 142 | – | – | –
Cc1nnc(N[C@H](C)c2cc(N)cc(C(F)(F)F)c2)c2cc(O[C@H]3CCOC3)ccc12 [Example 15-1, N—((R)-1-(3-amino-5-(trifluoromethyl)phenyl)ethyl)-4-methyl-7-(((S)-tetrahydrofuran-3-yl)oxy)phthalazin-1-amine] | 3.37 | 28 | – | – | –
Cc1c([C@@H](C)Nc2nnc(C)c3ccc(N4CCOCC4)cc23)cc(N)cc1C(F)(F)F [Example 15-2, (R)—N-(1-(5-amino-2-methyl-3-(trifluoromethyl)phenyl)ethyl)-4-methyl-7-morpholinophthalazin-1-amine] | – | – | – | 8 | 0.42
Cc1c([C@@H](C)Nc2nnc(C)c3ccc(O[C@H]4CCOC4)cc23)cc(N)cc1C(F)(F)F [Example 15-3, N-((R)-1-(5-amino-2-methyl-3-(trifluoromethyl)phenyl)ethyl)-4-methyl-7-(((S)-tetrahydrofuran-3-yl)oxy)phthalazin-1-amine] | 0.94 | 34 | – | – | –
Cc1nnc(N[C@H](C)c2cc(N)cc(C(F)(F)F)n2)c2cc(N3CCOCC3)ccc12 [Example 16-1, (R)—N-(1-(4-amino-6-(trifluoromethyl)pyridin-2-yl)ethyl)-4-methyl-7-morpholinophthalazin-1-amine] | – | – | – | 245 | 14.4
Cc1nnc(N[C@H](C)c2cc(N)cc(C(F)(F)F)n2)c2cc(N3CC4CC(C3)O4)ccc12 [Example 16-4, N-((R)-1-(4-amino-6-(trifluoromethyl)pyridin-2-yl)ethyl)-7-(6-oxa-3-azabicyclo[3.1.1]heptan-3-yl)-4-methylphthalazin-1-amine] | 10.4 | 371 | – | – | –
